Measured values from a melting point compilation (Tetko et al.; mined from patent text by program, amines drawn as free bases though some values may be those of a salt).

O=C(O)c1cn(-c2c[nH]nn2)c2cc(F)c(F)cc2c1=O showed a melting point of 215 to 224 °C.
Molecule Cc1onc(-c2ccc(C(F)(F)F)cc2)c1CO has a melting point of 72 to 73 °C.
For CCOC(=O)c1ccc(-c2csc(-c3ccc(Cl)cc3)n2)cc1, the melting point was 105 to 106 °C.
Work on Oc1ccc(-c2cc3c(Oc4ccc(Cl)cc4)cncc3s2)cc1 yielded a melting point of 213 to 215 °C.
With CNc1cc(S(=O)(=O)c2ccccc2)ccn1 the melting point was 142 to 143 °C.
Cc1cc(C)c2c(c1C)OC(C)(C)C2c1ccc(F)cc1 (configuration not stated) showed a melting point of 109 to 110 °C.
With CN(C)Cc1ccc2c(NCc3ccc(NC(=O)c4ccc(F)cc4)cc3)nc(N(C)C)nc2c1 the melting point was 94 °C.
Molecule COc1cccc(C2(O)CCN(C)CC2)c1 has a melting point of 111 to 113 °C.
For CCNC(=O)c1ccccc1Nc1nc(Nc2cc3c(cc2OC)CCN(CC(=O)NC)CC3)ncc1Cl, the melting point was 99 to 110 °C.
COCOc1cc(OC)cc(C)c1C(=O)O showed a melting point of 111 to 112 °C.
Work on COc1ccc(N2CCCn3c2nc2c(Cl)ccc(C(OC(F)F)C(F)(F)F)c23)c(C)c1 (configuration not stated) yielded a melting point of 178 to 182 °C.
Cc1ccc(Cl)cc1NC(=S)Nc1nccs1 gave a melting point of 197 to 198 °C.
For O=C(c1cc(-c2ccccc2)c2sccc2c1)N1CCCCC1, the melting point was 112 °C.
For O=C(c1cccnc1)N1CC2CCc3ccccc3C2=N1 (configuration not stated), the melting point was 141 to 143 °C.
Molecule C#CC1(O)CCC2C3CCC4=CC(=O)CCC4C3C(C(F)F)CC21C (configuration not stated) has a melting point of 185 to 187 °C.
In the case of Cc1cc2c(-c3cccc(/C=C/C=O)c3)c(CC(=O)Nc3ccc(F)cc3C(F)(F)F)c(=O)oc2cc1Cl, the melting point is reported as 232 to 235 °C.
With CCCCN(CCCC)p1oc2c(C(C)(C)C)cc(C(C)(C)C)cc2c2cc(C(C)(C)C)cc(C(C)(C)C)c2o1 the melting point was 140 °C.
Molecule COc1cc2oc(-c3ccc(F)cc3)c(Br)c2c(OC)c1Br has a melting point of 186 to 187 °C.
Molecule CS(=O)(=O)c1ccc(C(Cc2ccc(F)cc2)C(=O)Nc2nc3ccc(CO)cc3o2)cc1 (configuration not stated) has a melting point of 128 to 130 °C.
For Cc1nc(S)nn1-c1ccc([N+](=O)[O-])cc1, the melting point was 202 °C.
CC(=O)NCCNCC(O)COc1ccc(CCOCC2CCC2)cc1 (configuration not stated) gave a melting point of 108 °C.
Work on CC(C)(C)C(NC(=O)c1ccc(I)cc1)NS(=O)(=O)Nc1cccnc1 (configuration not stated) yielded a melting point of 177 to 178 °C.
For CCn1c(=O)c2[nH]c(/C=C/c3cc(C(F)(F)F)cc(C(F)(F)F)c3)nc2n(CC)c1=O, the melting point was over 280 °C.
Work on COc1ccc(S(=O)(=O)Nc2ccccc2NC=O)cc1 yielded a melting point of 143 to 144 °C.
For CC1(c2cccc(F)c2C(=O)NCCCl)CCC1, the melting point was 108 to 110 °C.
CNC1=NN(C(=O)c2ccccc2C(F)(F)F)C(C)(C)S1 gave a melting point of 164 to 169 °C.
For COc1ccc2nc(O)nc(O)c2c1, the melting point was over 290 °C.
For O=C1N=NC(=O)N1c1ccccc1, the melting point was 102 to 107 °C.
NN=C(c1ccc(F)cc1)c1ccc(F)cc1 gave a melting point of 78 °C.
For CN1C(=O)SC(Cc2cn(-c3ccccc3)nc2O)C1=O (configuration not stated), the melting point was 233 to 234 °C.
In the case of O=C1OC(CN2CCC(n3c(=O)[nH]c4ccccc43)CC2)CN1c1ccccc1 (configuration not stated), the melting point is reported as 210 to 212 °C.
For O=C1CC(C(=O)O)(c2ccccc2)C1, the melting point was 133 to 135 °C.
For CCC(c1cnc2c(C)c(NC(=O)c3ccc(-c4ccc(F)cc4)cc3)ccc2c1)N1CCCC1 (configuration not stated), the melting point was 188 to 191 °C.
Molecule c1cnc2ccc(Cn3cnc4ccc(-c5cn[nH]c5)nc43)cc2c1 has a melting point of 214 to 216 °C.
With OCc1ccnc(F)c1 the melting point was 61 to 63 °C.
Work on O=c1ccc2ccc(OCCCCN3CCN(c4cccc5cc(Cl)ccc45)CC3)nc2[nH]1 yielded a melting point of 208 to 209 °C.
In the case of CCOC(=O)C1CCC(CS(=O)(=O)c2ccc(Oc3ccc(OC(F)(F)F)cc3)cc2)(N(O)C=O)CC1 (configuration not stated), the melting point is reported as 150 to 151 °C.
CCOC(=O)Oc1ccc2nc(S)n(C)c(=O)c2c1 showed a melting point of 216 to 220 °C.
With CCCCCCCCCCCCCCCCSCC(C)(C)CO the melting point was 25 to 28 °C.
For CCC(=CC(CNC(=O)c1ccc(C)nc1)=NO)C(C)[N+](=O)[O-] (configuration not stated), the melting point was 150 to 151 °C.
For Cc1cc(C(=O)CCc2cc(-c3ccc(C(F)(F)F)cc3)nn2CC2CC2)ccc1OC(C)(C)C(=O)O, the melting point was 55 to 60 °C.
In the case of CCCC1=C(C(=O)OCC)C(c2cccc(C(F)(F)F)c2Cl)c2c[nH]nc2N1 (configuration not stated), the melting point is reported as 236 to 238 °C.
With O=C(O)c1ccc(-c2cccc3ccccc23)cc1 the melting point was 221 to 224 °C.
Molecule CCN1C(=O)c2ccc(C)cc2Oc2ncccc21 has a melting point of 88 to 90 °C.
Work on CC1CCc2c(N3CCCCC3)c(Cl)cc3c(=O)c(C(=O)O)cn1c23 (configuration not stated) yielded a melting point of 246 to 248 °C.
Molecule CCOC(=O)c1cc(OC2COCCC2=O)[nH]n1 (configuration not stated) has a melting point of 121 to 123 °C.
Molecule CCCOc1ccc(/C=C/C(=O)N2CCOCC2)cc1-c1nc2c(c(C)nn2CCC)c(=O)[nH]1 has a melting point of 156 to 157 °C.
CCOC(=O)c1ccc(CCN2CCN(Cc3ccc(OC)cc3)CC2)cc1 showed a melting point of 75 to 76 °C.
CC1=C(c2ccccc2)C(c2ccccc2OCc2ccccc2)C([N+](=O)[O-])=C(C)N1 (configuration not stated) showed a melting point of 189 °C.
CSCCC1(C)CCc2c(C)c(O)c(C)c(C)c2O1 (configuration not stated) showed a melting point of 66.5 to 67 °C.
CC(C)n1nc(C(Cl)C(=O)c2cccc(F)c2)ccc1=O (configuration not stated) showed a melting point of 65.5 to 66.5 °C.
Cc1c(O)ccc(S)c1C gave a melting point of 98 to 99 °C.
